Values of other authors in patent US7271001B2, “Method for mitochondrial targeting of p53” (The Research Foundation of State University of New York, priority 2004, dated 2007).

Columns and labels:
[1] = system: tumor-derived p53 mutant proteins; conditions: cell-based assays in vitro
tumor xenografts = tumor xenografts in nude mice

COc1ccc(/C=C/c2nc(NCCCN(C)C)c3ccccc3n2)cc1 [CP-31398]
restoration of transcriptional p53 function [1]: can restore transcriptional p53 function
tumor growth (tumor xenografts): slow tumor growth

O=C1C2CCN(CC2)C1(CO)CO [PRIMA-1]
restoration of transcriptional p53 function [1]: can restore transcriptional p53 function
tumor growth (tumor xenografts): slow tumor growth
